Laboratory results: article PMC4019984, “Kinase and channel activity of TRPM6 are co-ordinated by a dimerization motif and pocket interaction” (Biochemical Journal, 2014)

Legend:
TRPM6-(1730–end) = biological target: T1, TRPM6-(1730–end) (Homo sapiens, UniProt Q9BX84); test: Kinase activation assay (MBP substrate), TRPM6-(1730–end); type: biochemical; settings: FLAG-tagged TRPM6-(1730–end) immunoprecipitated from HEK-293; MBP 1 μg, 0.1 mM [γ-32P]ATP, 10 mM MgCl2, 30 min at 30°C; increasing peptide concentrations; read-out: half-maximal activation
T1 construct: expressed in transfected cells; host or cells: HEK-293
T1 sequence (Q9BX84 1730-2022 limits assumed): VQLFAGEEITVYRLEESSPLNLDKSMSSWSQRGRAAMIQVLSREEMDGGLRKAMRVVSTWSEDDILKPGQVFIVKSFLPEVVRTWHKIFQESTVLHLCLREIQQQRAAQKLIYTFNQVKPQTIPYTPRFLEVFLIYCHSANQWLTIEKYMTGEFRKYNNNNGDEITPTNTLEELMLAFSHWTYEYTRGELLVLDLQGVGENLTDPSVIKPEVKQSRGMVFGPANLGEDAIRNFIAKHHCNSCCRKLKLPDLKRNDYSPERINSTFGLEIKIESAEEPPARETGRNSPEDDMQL
Protocol: In assays using E. coli-expressed TRPM6, reactions were set up in a volume of 20 μl, with substrate MBP (myelin basic protein) at 1 μg and kinase at 0.1–10 μg in buffer A containing 0.1% 2-mercaptoethanol, 10 mM MgCl2 and 0.1 mM [γ-^32P]ATP (~1000 cpm·pmol^−1). Assays were carried out for 30 min at 30°C with shaking at 1000 rev./min and terminated by addition of SDS sample buffer. […] Proteins were detected by Coomassie Blue staining and gels were imaged using an Epson scanner and dried completely using a gel dryer (Bio-Rad Laboratories). Incorporation of [γ-^32P]ATP into substrates was analysed by autoradiography using Hyperfilm (GE Healthcare) or quantified by Cerenkov counting.
Figure 2 Identification of dimerization motif residues in TRPM6 (A) Structural model of TRPM7 α-kinase depicting the N-terminal non-catalytic α-helix of one monomer that interacts with the kinase segment of the other monomer. (B) Fluorescence polarization analysis of wild-type (WT) and mutant (Mut) dimerization motif peptides with E. coli-purified GST-tagged TRPM6-(1730–end). […] The samples were analysed by immunoblotting with anti-GST antibody (top panel). […] Proteins were separated by SDS/PAGE, stained with Coomassie Blue (top and middle gels) and MBP phosphorylation was detected by autoradiography (bottom gel). […] The pull-down samples were analysed by immunoblotting with anti-FLAG antibody (top panel). […]

[1] = biological target: T2, GST-tagged TRPM6-(1730–end) (Homo sapiens, UniProt Q9BX84); test: Fluorescence polarization binding assay, TRPM6-(1730–end); settings: 100 nM labelled peptide, increasing concentrations of TRPM6-(1730–end), pH 7.5, room temperature
T2 construct: E. coli-purified GST-tagged TRPM6-(1730–end); made in house; host or cells: E. coli BL21
T2 sequence (Q9BX84 1730-2022 limits assumed): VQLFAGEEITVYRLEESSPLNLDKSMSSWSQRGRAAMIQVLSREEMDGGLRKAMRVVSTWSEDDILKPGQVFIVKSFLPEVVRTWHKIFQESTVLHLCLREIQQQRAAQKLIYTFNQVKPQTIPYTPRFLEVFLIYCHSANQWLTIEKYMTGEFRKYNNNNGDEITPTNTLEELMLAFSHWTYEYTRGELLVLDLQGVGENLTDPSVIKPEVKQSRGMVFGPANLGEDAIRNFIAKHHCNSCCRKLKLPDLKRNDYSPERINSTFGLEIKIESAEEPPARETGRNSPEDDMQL
Protocol: The peptides used for the assay contained a C-terminal linker leading to the peptides […] (wild-type) and […] (mutant). The peptides were labelled with Lumio Green (Invitrogen) following the manufacturer's protocol. Fluorescence polarization measurements were performed at room temperature in buffer containing 25 mM Tris/HCl (pH 7.5), 200 mM NaCl and 5 mM 2-mercaptoethanol. Binding assays were performed by combining 100 nM labelled peptide with increasing concentrations of TRPM6 kinase, in a total volume of 30 μl of buffer, and end-point polarization measurements were made using the BMG PheraStar plate reader. The polarization values were measured at an excitation wavelength of 485 nm and an emission wavelength of 538 nm, and were corrected for fluorescent probe alone. At least ten data points were measured for each curve, and each data point was measured in duplicate. Data were analysed using GraphPad Prism 5 and curve-fitting of the data from two independent experiments was performed with one-site specific binding with Hill slope [model Y=BmaxX^h/(Kd^h+X^h)] to determine Kd values.
(Figure 2A). We next utilized fluorescence polarization technology, a sensitive method to evaluate interactions between proteins and peptides. […]

[2] = biological target: T3, GST-tagged TRPM6-(1730–end), E. coli-purified, Q9BX84; test: fluorescence polarisation; settings: chain shown with the change; read at the highest titration point, 2.5 µM TRPM6-(1730-end); parent: est. 94; read off a plot
T3 chain: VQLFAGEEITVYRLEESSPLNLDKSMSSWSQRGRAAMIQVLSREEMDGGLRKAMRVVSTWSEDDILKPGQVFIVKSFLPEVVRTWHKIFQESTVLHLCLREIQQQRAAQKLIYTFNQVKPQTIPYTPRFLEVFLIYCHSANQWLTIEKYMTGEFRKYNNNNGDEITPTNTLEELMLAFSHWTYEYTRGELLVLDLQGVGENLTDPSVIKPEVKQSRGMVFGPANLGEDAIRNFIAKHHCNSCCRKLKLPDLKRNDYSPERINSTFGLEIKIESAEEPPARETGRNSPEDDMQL

Q: Which EC50 (TRPM6-(1730–end)) does the source give for `CC[C@H](C)[C@H](NC(=O)[C@H](C)NC(=O)[C@H](CO)NC(=O)[C@H](Cc1ccc(O)cc1)NC(=O)[C@H](Cc1c[nH]cn1)NC(=O)[C@H](Cc1c[nH]cn1)NC(=O)[C@H](Cc1c[nH]cn1)NC(=O)[C@@H]1CCCN1C(=O)[C@H](CCC(=O)O)NC(=O)[C@H](CCC(N)=O)NC(=O)[C@@H]1CCCN1C(=O)[C@H](CO)NC(=O)[C@H](CCCCN)NC(=O)[C@@H](N)CC(C)C)C(=O)N[C@@H](CCC(=O)O)C(=O)N[C@@H](CCCNC(=N)N)C(=O)N[C@@H](CC(N)=O)C(=O)N[C@@H](CC(N)=O)C(=O)N[C@@H](CC(C)C)C(=O)N[C@@H](CCSC)C(=O)N[C@@H](CCCNC(=N)N)C(=O)N[C@@H](CC(C)C)C(=O)N[C@@H](CO)C(=O)N[C@@H](CCC(N)=O)C(=O)N[C@H](C(=O)N[C@H](C(=O)N1CCC[C@H]1C(=O)N[C@@H](Cc1ccccc1)C(=O)N[C@H](C(=O)N1CCC[C@H]1C(=O)N[C@H](C(=O)N[C@@H](CCC(N)=O)C(=O)N[C@@H](CC(C)C)C(=O)N[C@@H](Cc1ccccc1)C(=O)N[C@@H](C)C(=O)NCC(=O)N[C@@H](CCC(=O)O)C(=O)N[C@@H](CCC(=O)O)C(=O)N[C@H](C(=O)N[C@H](C(=O)N[C@H](C(=O)O)C(C)C)[C@@H](C)O)[C@@H](C)CC)C(C)C)[C@@H](C)O)[C@@H](C)CC)[C@@H](C)O` [dimerization motif peptide] here?
A: ~15 µM

Q: “LKSPQEPHHHYSAIERNNAMRASQTIPFTPVQLFAGEEITVGGCCPGCC [mutant dimerization motif peptide, mutant (L1718A+L1721A) dimerization motif peptide with C-terminal linker, labelled with Lumio Green]” was tested. Which “fluorescence polarization increase (binding)” value [1] did it give?
A: only background increases in fluorescence polarization were observed

B1: fluorescently labelled dimerization motif peptide (wild-type) with C-terminal linker GGCCPGCC L1718A; L1721A (peptide)
chain: LKSPQEPHHHYSAIERNNAMRASQTIPFTPVQLFAGEEITVGGCCPGCC
Q: How did the response [2] turn out when B1 was run?
A: 24 mP
